Data set [1] has as its system TGF-β1 induced total collagen accumulation in MRC-5 cells. Briefly: Sircol collagen assay: inhibition of TGF-β1-induced total collagen accumulation. The format is cell-based, human. The note with it: for IC50: Homo sapiens, MRC5, 10 ng/mL TGF-β1, 48 h, Sircol collagen assay; for SI, selectivity index (SI = CC50/IC50): MRC-5 cells. How it is done:
Higher SI values indicates better safety profile.
MRC-5 cells in 1 × 10^5 cells/mL density were seeded in TC treated 96-well plates and allowed to reach confluence for 48 h. The cells were then starved using MEM-NEAA containing 0.2% BSA for 24 h. After starvation, the medium was changed to MEM-NEAA supplemented with 0.2% BSA, 100 μM L-Proline, 100 μM Ascorbic acid, with or without 10 ng/mL TGF-β1 (Peprotech) in the presence of vehicle or different concentrations of compounds. After 48 h incubation, the MRC-5 cells were washed with phosphate buffered saline (PBS) and fixed in −20 °C precooled methanol for 10 min. The cells were than washed with PBS before incubation in 0.1% PSR staining solution (0.1% Sirus red in saturated water solution of picric acid) for 1 h. The staining solution was then removed and the cells were washed with 0.1% acetic acid for three times. 200 μL of 0.1 mol/L sodium hydroxide solution were added to each well and the plates were placed on a rocking platform for 1 h. The optical density (OD) values at 550 nm were determined with an Infinite 2000 spectrophotometer.

Data set [2] can be described thus: Cytotoxicity assay (CCK-8). As to conditions: human, MRC-5 cells (human fetal lung fibroblasts).
Procedure: Cytotoxicity of all compounds were also determined against MRC-5 cells, so as to calculate selectivity index (SI, CC50/IC50).
MRC-5 cells in passage between 21 to 26 were used for experiments.
MRC-5 cells were incubated with different concentrations of compounds for 48 h, and then 10 μL of CCK-8 solution were added to each well. The cells were incubated at 37 °C for another 3 h before determining the OD values at 492 nm. DMSO at 0.1% v/v final concentration was used to solubilize the test compounds, except for compound 3b, 3c, and 3e, where 1% v/v DMSO was used to ensure complete solubilization.
Another data set concerns MRC-5 fibroblasts. Briefly: Scratch (wound healing) assay, TGF-β1-induced fibroblast migration. As to conditions: 1000 μM, 10 ng/mL TGF-β1, 24 h (TGF-β1 alone 85.0%). The class given is cell-based, human. How it is done: Fibroblast migration is the key event in pulmonary fibrogenesis. […] Inhibition of lung fibroblasts migration is a promising potential therapeutic target for IPF. We performed wound healing assay to investigate the inhibitory effect of 3f and matrine against fibroblast migration (Figure 7).
MRC-5 cells were seeded on 6-well plates and allowed to reach confluence for 48 h. The cell monolayer was gently scratched with a 1 mL pipette tip across the center of the well. After scratching, the cells were washed twice with medium to remove detached cells. The cells were then treated with or without 10 ng/mL TGF-β1 in the presence of vehicle or 10 μM 3f for 24 h. The gap area in wound region was quantitatively evaluated using ImageJ [30] and MRI wound healing tool plugin [31].

The record followed here is PMC6470603, “Design and Synthesis of Matrine Derivatives as Novel Anti-Pulmonary Fibrotic Agents via Repression of the TGFβ/Smad Pathway” (Molecules, 2019).

The structures appear in SMILES notation.

What is called IC50 is the midpoint of a concentration-inhibition curve. High values mean weaker potency, low ones greater potency. What is called CC50 is the concentration giving 50% cytotoxicity. On to `CNC1CC(=O)N2CC3CCCN4CCCC(C34)C2C1` (stereo not shown) [2a, 13-methylamino-matrine], for which, in data set [1], the IC50 turned out to be 65.3 ± 4.2 µM and the “SI, selectivity index (SI = CC50/IC50)” value stood at 9.3. This molecule returned a CC50 at 48 h in data set [2] of 609 ± 29.8 µM.
Regarding `CN(C)C1CC(=O)N2CC3CCCN4CCCC(C34)C2C1` (stereo not shown) [2b, 13-dimethylamino-matrine], in data set [1], inhibition was half-maximal at 92.1 ± 1.9 µM (IC50) and the “SI, selectivity index (SI = CC50/IC50)” value was 6.8. In addition, the cytotoxic concentration (CC50) at 48 h in data set [2] amounted to 624 ± 13.2 µM.
As for `O=C1CC(N2CCCC2)C[C@@H]2[C@H]3CCCN4CCC[C@@H](CN12)[C@@H]34` (stereo partly shown) [2c, 13-(pyrrolidine-1-yl)-matrine], in data set [1], the IC50 was 256 ± 22.1 µM and the “SI, selectivity index (SI = CC50/IC50)” value was 2.6. The same molecule came in with a CC50 at 48 h in data set [2] of 676 ± 49.1 µM.
Consider `O=C1CC(N2CCOCC2)C[C@@H]2[C@H]3CCCN4CCC[C@@H](CN12)[C@@H]34` (stereo partly shown) [2d, 13-morpholinocyclohexane-matrine], for which, in data set [1], the half-maximal inhibitory concentration (IC50) came to 138 ± 9.8 µM and the “SI, selectivity index (SI = CC50/IC50)” value was 3.7. The molecule further registered a CC50 at 48 h in data set [2] of 507 ± 25.3 µM.
In the case of `O=C1CC(n2ccc3ccccc32)C[C@@H]2[C@H]3CCCN4CCC[C@@H](CN12)[C@@H]34` (stereo partly shown) [3a, 13-(1H-indol-1-yl)-matrine], in data set [1], the concentration for half-maximal inhibition (IC50) is 28.3 ± 3.9 µM and the “SI, selectivity index (SI = CC50/IC50)” value stood at 3.8. The midpoint of cytotoxicity in data set [2], the CC50 at 48 h, lay at 107 ± 5.9 µM.
Regarding `Cc1cn(C2CC(=O)N3C[C@@H]4CCCN5CCC[C@@H]([C@H]45)[C@H]3C2)c2ccccc12` (stereo partly shown) [3b, 13-(3-methyl-1H-indol-1-yl)-matrine], in data set [1], 39 ± 0.6 µM corresponded to half-maximal inhibition (IC50) and the “SI, selectivity index (SI = CC50/IC50)” value is given as 2.4. Further, the 50% cytotoxic concentration (CC50) at 48 h in data set [2] came out at 95.1 ± 6.5 µM.
Turning to `COc1cccc2c1ccn2C1CC(=O)N2C[C@@H]3CCCN4CCC[C@@H]([C@H]34)[C@H]2C1` (stereo partly shown) [3c, 13-(4-methoxy-1H-indol-1-yl)-matrine], in data set [1], the half-maximal inhibitory concentration (IC50) was 44.7 ± 3.6 µM and the “SI, selectivity index (SI = CC50/IC50)” value came out at 1.3. The CC50 at 48 h in data set [2] was found to be 56.7 ± 3.9 µM.
For the molecule `O=C1CC(n2ccc3c([N+](=O)[O-])cccc32)C[C@@H]2[C@H]3CCCN4CCC[C@@H](CN12)[C@@H]34` (stereo partly shown) [3d, 13-(4-nitro-1H-indol-1-yl)-matrine], in data set [1], half-maximal inhibition (IC50) was put at 4.3 ± 0.4 µM and the “SI, selectivity index (SI = CC50/IC50)” value is on record as 7.6. Also, in data set [2], the midpoint of cytotoxicity, the CC50 at 48 h, lay at 32.8 ± 2.7 µM.
With `COc1ccc2c(ccn2C2CC(=O)N3C[C@@H]4CCCN5CCC[C@@H]([C@H]45)[C@H]3C2)c1` (stereo partly shown) [3e, 13-(5-methoxy-1H-indol-1-yl)-matrine], in data set [1], the concentration for half-maximal inhibition (IC50) was found to be 68.1 ± 5.5 µM and the “SI, selectivity index (SI = CC50/IC50)” value was found to be 1.9. This molecule also had a 50% cytotoxic concentration (CC50) at 48 h in data set [2] of 128 ± 1.4 µM.
In the same order, the values of `O=C1CC(n2ccc3cc(Br)ccc32)C[C@@H]2[C@H]3CCCN4CCC[C@@H](CN12)[C@@H]34` (stereo partly shown) [3g, 13-(5-bromo-1H-indol-1-yl)-matrine] are 6.5 ± 1.2 µM, 2.8 and 18.2 ± 0.6 µM.
Consider `N#Cc1ccc2c(ccn2C2CC(=O)N3C[C@@H]4CCCN5CCC[C@@H]([C@H]45)[C@H]3C2)c1` (stereo partly shown) [3h, 13-(5-cyano-1H-indol-1-yl)-matrine], for which, in data set [1], the IC50 is 72.1 ± 4 µM and the “SI, selectivity index (SI = CC50/IC50)” value is reported as 2.1. For the same molecule, the half-maximal cytotoxic concentration (CC50) at 48 h in data set [2] was found to be 154 ± 11 µM.
As for `O=C1CC(n2ccc3cc([N+](=O)[O-])ccc32)C[C@@H]2[C@H]3CCCN4CCC[C@@H](CN12)[C@@H]34` (stereo partly shown) [3i, 13-(5-nitro-1H-indol-1-yl)-matrine], in data set [1], half-maximal inhibition (IC50) was put at 14.5 ± 1 µM and the “SI, selectivity index (SI = CC50/IC50)” value was 4.5. In data set [2], the midpoint of cytotoxicity, the CC50 at 48 h, lay at 65.4 ± 3.1 µM.
`O=C1CC(n2ccc3cnccc32)CC2C3CCCN4CCCC(CN12)C34` (stereo not shown) [3j, 13-(1H-pyrrolo[3,2-c]pyridin-1-yl)-matrine]: in data set [1], the 50% inhibitory concentration (IC50) came out at 16.7 ± 3.5 µM and the “SI, selectivity index (SI = CC50/IC50)” value worked out at 6.8. In addition, the CC50 at 48 h in data set [2] amounted to 114 ± 5.9 µM.
Turning to `O=C1CC(n2ccc3ccc(F)cc32)C[C@@H]2[C@H]3CCCN4CCC[C@@H](CN12)[C@@H]34` (stereo partly shown) [3k, 13-(6-fluoro-1H-indol-1-yl)-matrine], in data set [1], the 50% inhibitory concentration (IC50) stood at 23.1 ± 5.3 µM and the “SI, selectivity index (SI = CC50/IC50)” value came out at 3.4. In data set [2], this molecule came in with a 50% cytotoxic concentration (CC50) at 48 h of 78.1 ± 3.4 µM.
The corresponding values for `O=C1CC(n2ccc3ccc(Cl)cc32)C[C@@H]2[C@H]3CCCN4CCC[C@@H](CN12)[C@@H]34` (stereo partly shown) [3l, 13-(6-chloro-1H-indol-1-yl)-matrine] are 27 ± 1.4 µM, 1.7 and 45.8 ± 1.1 µM.
Regarding `O=C1CC(n2ccc3ccc([N+](=O)[O-])cc32)C[C@@H]2[C@H]3CCCN4CCC[C@@H](CN12)[C@@H]34` (stereo partly shown) [3m, 13-(6-nitro-1H-indol-1-yl)-matrine], in data set [1], the concentration for half-maximal inhibition (IC50) is 19.3 ± 2.2 µM and the “SI, selectivity index (SI = CC50/IC50)” value is on record as 2.8. The molecule further yielded a cytotoxic concentration (CC50) at 48 h in data set [2] of 53.3 ± 1.9 µM.
Regarding `O=C1CC(n2ccc3ccncc32)C[C@@H]2[C@H]3CCCN4CCC[C@@H](CN12)[C@@H]34` (stereo partly shown) [3n, 13-(1H-pyrrolo[2,3-c]pyridin-1-yl)-matrine], in data set [1], the IC50 was determined as 69.5 ± 8.2 µM and the “SI, selectivity index (SI = CC50/IC50)” value is listed as 1.2. It took 84.2 ± 2.2 µM to reach half-maximal cytotoxicity in data set [2] (CC50 at 48 h).
As to `O=C1CCC[C@@H]2[C@H]3CCCN4CCC[C@@H](CN12)[C@@H]34` [Matrine], in data set [1], the concentration for half-maximal inhibition (IC50) worked out at 878 ± 68 µM and the “SI, selectivity index (SI = CC50/IC50)” value stood at 2.8. Besides, in the data set with MRC-5 fibroblasts, the “closure of wound area over 24 h period” value was 56.6%. The molecule further yielded a CC50 at 48 h in data set [2] of 2470 ± 103 µM.
As to `Cc1ccc(=O)n(-c2ccccc2)c1` [Pirfenidone, reference compound], in data set [1], it took 1320 ± 98 µM to reach half-maximal inhibition (IC50) and the “SI, selectivity index (SI = CC50/IC50)” value was 3.1. In addition, the CC50 at 48 h in data set [2] amounted to 4160 ± 239 µM.
